From patent publication US20050020576A1, “Kappa agonist compounds and pharmaceutical formulations thereof” (priority 1996, published 2005)
Where “and” joins values, the source holds several entries; their conditions need not be identical. Identical values can stand only once. Counter-ions that a name gives are not always drawn.

Experiments:
[1] = system: formalin-induced flinching; test: animal or person; type: in vivo, male Sprague-Dawley rats; conditions: rat, in vivo
[2] = target: T1, cloned human kappa receptor (Homo sapiens, UniProt P41145); test: biochemical; type: binding; design: (3H)-Diprenorphin, % / k [3H] Diprenorphin, %: dose or concentration left out as unconfirmed; conditions: for inhibition at 1 µM: read-out: 3H-Diprenorphin, % @ 1 uM
[3] = target: T1, cloned human kappa receptor; test: [3H]U69593 (agonist) binding to the cloned human kappa receptor

T1 sequence (P41145 whole entry): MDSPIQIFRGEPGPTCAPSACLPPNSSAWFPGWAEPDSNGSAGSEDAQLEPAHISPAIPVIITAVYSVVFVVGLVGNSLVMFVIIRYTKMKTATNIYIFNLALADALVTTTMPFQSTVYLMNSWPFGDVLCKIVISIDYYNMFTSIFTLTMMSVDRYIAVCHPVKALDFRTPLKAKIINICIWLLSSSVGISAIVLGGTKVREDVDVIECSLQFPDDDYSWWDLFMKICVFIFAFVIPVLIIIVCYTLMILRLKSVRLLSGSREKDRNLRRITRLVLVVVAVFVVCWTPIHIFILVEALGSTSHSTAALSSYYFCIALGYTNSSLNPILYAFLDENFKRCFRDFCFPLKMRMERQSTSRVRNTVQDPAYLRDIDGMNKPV

In the case of `CS(=O)(=O)N1CCN(C(=O)Cc2ccc(Cl)c(Cl)c2)C(CN2CCCC2)C1` (racemic) [(R,S-8a), (R,S)-4-Methanesulfonyl-1-[(3,4-dichlorophenyl)acetyl]-2-[(1-pyrrolidinyl)methyl]-piperazine hydrochloride], the “Late Phase Formalin, % @ 300; i.paw” value [1] is reported as 96% @ 300, the Ki ([2]; Ki, nM 3H-Diprenorphin) is reported as 5.4 nM and 4 nM and the Ki ([3]; Ki, nM 3H-U-69,593) is reported as 0.37 nM and 0.65 nM.

With `CS(=O)(=O)c1ccc(CC(=O)N2CCN(S(C)(=O)=O)CC2CN2CCCC2)cc1` (racemic) [(R,S-8b), (R,S)-4-Methanesulfonyl-1-[(4-methylsulfonylphenyl)acetyl]-2-[(1-pyrrolidinyl)-methyl]piperazine hydrochloride] the inhibition at 1 µM [2] was 41% and the Ki ([3]; Ki, nM 3H-U-69,593) was 20 nM and 31 nM.

In the case of `CS(=O)(=O)N1CCN(C(=O)Cc2ccccc2[N+](=O)[O-])[C@H](CN2CCCC2)C1.Cl` (racemic) [(R,S-8c), (R,S)-4-Methanesulfonyl-1-[(2-nitrophenyl)acetyl]-2-[(1-pyrrolidinyl)-methyl]piperazine hydrochloride], the “3H-Diprenorphin, % @ 1 uM” value [2] is reported as 15% @ 1 uM and the “3H-U-69,593, % @ 1 uM” value [3] is reported as 51% @ 1 uM.

With `CS(=O)(=O)N1CCN(C(=O)Cc2ccc(C(F)(F)F)cc2)C(CN2CCCC2)C1` (racemic) [(R,S-8d), (R,S)-4-Methanesulfonyl-1-[(4-trifluoromethylphenyl)acetyl]-2-[(1-pyrrolidinyl)-methyl]piperazine hydrochloride] the “Late Phase Formalin, % @ 300; i.paw” value [1] was 97% @ 300, the Ki ([2]; Ki, nM 3H-Diprenorphin) was 16 nM and 17 nM and the Ki ([3]; Ki, nM 3H-U-69,593) was 1.3 nM and 1.9 nM.

In the case of `CS(=O)(=O)N1CCN(C(=O)Cc2c[nH]c3ccccc23)C(CN2CCCC2)C1` (racemic) [(R,S-8e), (R,S)-4-Methanesulfonyl-1-[(3-indolylacetyl-2-[(1-pyrrolidinyl)-methyl]piperazine hydrochloride], the inhibition at 1 µM [2] is reported as 74% and the Ki ([3]; Ki, nM 3H-U-69,593) is reported as 5.3 nM and 3.2 nM.

For `COC(=O)N1CCN(C(=O)Cc2ccc(S(C)(=O)=O)cc2)C(CN2CCCC2)C1` (racemic) [(R,S-9a), (R,S)-Methyl 4-[(4-methylsulfonylphenyl)acetyl]-3-[(1-pyrrolidinyl)-methyl]-1-piperazinecarboxylate hydrochloride], the “Late Phase Formalin, % @ 300; i.paw” value [1] was 46% @ 300, the Ki ([2]; Ki, nM 3H-Diprenorphin) was 11 nM and the Ki ([3]; Ki, nM 3H-U-69,593) was 0.37 nM and 0.42 nM.

Molecule `CC(=O)N1CCN(C(=O)Cc2ccccc2C(F)(F)F)C(CN2CCCC2)C1` (racemic) [(R,S-10c), (R,S)-4-Acetyl-1-[(2-trifluoromethylphenyl)acetyl]-3-[(1-pyrrolidinyl)-methyl]piperazinecarboxylate hydrochloride] has an inhibition at 1 µM [2] of 45% and a Ki ([3]; Ki, nM 3H-U-69,593) of 16 nM.

Work on `CC(=O)N1CCN(C(=O)Cc2cccc([N+](=O)[O-])c2)C(CN2CCCC2)C1` (racemic) [(R,S-10d), (R,S)-4-Acetyl-1-[(3-nitrophenyl)acetyl]-3-[(1-pyrrolidinyl)-methyl]piperazine-carboxylate hydrochloride] yielded an inhibition at 1 µM [2] of 94% and a Ki ([3]; Ki, nM 3H-U-69,593) of 0.72 nM.

Work on `CC(=O)N1CCN(C(=O)Cc2ccccc2[N+](=O)[O-])C(CN2CCCC2)C1` (racemic) [(R,S-10e), (R,S)-4-Acetyl-1-[(2-nitrophenyl)acetyl]-3-[(1-pyrrolidinyl)-methyl]piperazine-carboxylate hydrochloride] yielded a Ki ([2]; Table I, read-out: Ki, nM 3H-Diprenorphin) of 541 nM and a Ki ([3]; Ki, nM 3H-U-69,593) of 24 nM.

Molecule `CC(=O)N1CCN(C(=O)Cc2ccc([N+](=O)[O-])cc2)C(CN2CCCC2)C1` (racemic) [(R,S-10f), hydrochloride] has an inhibition at 1 µM [2] of 59% and a Ki ([3]; Ki, nM 3H-U-69,593) of 2.4 nM.

In the case of `CN(C(=O)Cc1ccc(C(F)(F)F)cc1N(S(C)(=O)=O)S(C)(=O)=O)C1CCCCC1N1CCCC1.Cl` (racemic) [Example 5j, (±)-trans-2-Bismethanesulfonamido-4-trifluoromethyl-N-methyl-N-[2-(1-pyrrolidinyl)cyclohexyl]-phenylacetamide Hydrochloride], the “% @ 1 μM, diprenorphine” value [2] is reported as 13% @ 1 μM and the “% @ 1 μM, U-69593” value [3] is reported as 48% @1 μM.

Molecule `CN(C(=O)C(c1ccccc1)c1ccccc1)C1CCCCC1N1CCCC1` (racemic) [Example 5s, (±)-trans-N-Methyl-N-[2-(1-pyrrolidinyl)cyclohexyl]2,2-dphenylacetamide Hydrochloride] has a Ki ([2]; Ki(nM) diprenorphine) of 1170 nM and a Ki ([3]; Ki(nM) U-69593) of 330 nM.

With `COc1ccc2c(c1)[C@H](N(C)C(=O)C(c1ccccc1)c1ccccc1)[C@@H](N1CCCC1)CC2` (racemic) [II-2] the Ki ([2]; Ki (nM) k [3H] Diprenorphin) was 142 nM and the Ki ([3]; Ki (nM) k (mg) [3H]U69,593) was 20 nM.

With `CN(C(=O)C(c1ccccc1)c1ccccc1)[C@H]1c2cc(O)ccc2CC[C@@H]1N1CCCC1` (racemic) [II-4] the Ki ([2]; Table II, read-out: Ki (nM) k [3H] Diprenorphin) was 549 nM and the Ki ([3]; Table II, read-out: Ki (nM) k (mg) [3H]U69,593) was 432 nM.

`CN(C(=O)Cc1ccc(Cl)c(Cl)c1)[C@H]1c2cc(N(CC(=O)OC(C)(C)C)CC(=O)OC(C)(C)C)ccc2CC[C@@H]1N1CCCC1` (racemic) [II-11] gave a Ki ([2]; Ki (nM) k [3H] Diprenorphin) of 7.4 nM and a Ki ([3]; Ki (nM) k (mg) [3H]U69,593) of 2.8 nM.

Work on `CN(C(=O)Cc1ccc(Cl)c(Cl)c1)[C@H]1c2cc(N(CC(=O)O)CC(=O)O)ccc2CC[C@@H]1N1CCCC1` (racemic) [II-12] yielded a Ki ([2]; Ki (nM) k [3H] Diprenorphin) of 3.8 nM and a Ki ([3]; Ki (nM) k (mg) [3H]U69,593) of 0.68 nM.

Molecule `CCOP(=O)(CCNc1ccc2c(c1)[C@H](N(C)C(=O)Cc1ccc(Cl)c(Cl)c1)[C@@H](N1CCCC1)CC2)OCC` (racemic) [II-13] has a Ki ([2]; Ki (nM) k [3H] Diprenorphin) of 6.2 nM and a Ki ([3]; Ki (nM) k (mg) [3H]U69,593) of 2.2 nM.

Work on `CCOP(=O)(Nc1ccc2c(c1)[C@H](N(C)C(=O)Cc1ccc(Cl)c(Cl)c1)[C@@H](N1CCCC1)CC2)OCC` (racemic) [II-14] yielded a Ki ([2]; Ki (nM) k [3H] Diprenorphin) of 2.4 nM and a Ki ([3]; Ki (nM) k (mg) [3H]U69,593) of 0.6 nM.

With `COc1cc2c(cc1S(=O)(=O)N(C)Cc1ccccc1)[C@H](N(C)C(=O)Cc1ccc(Cl)c(Cl)c1)[C@@H](N1CCCC1)CC2` (racemic) [II-15] the Ki ([2]; Ki (nM) k [3H] Diprenorphin) was 48 nM and the Ki ([3]; Ki (nM) k (mg) [3H]U69,593) was 8 nM.

Molecule `CN(C(=O)Cc1ccc(Cl)c(Cl)c1)[C@H]1c2cc(S(=O)(=O)N(C)Cc3ccccc3)ccc2CC[C@@H]1N1CCCC1` (racemic) [II-16] has a Ki ([2]; Ki (nM) k [3H] Diprenorphin) of 200 nM and a Ki ([3]; Ki (nM) k (mg) [3H]U69,593) of 40 nM.

With `CN(C(=O)C(c1ccccc1)c1ccccc1)[C@H]1c2ccccc2C[C@@H]1N1CCCC1` (racemic) [II-20] the “k [3H] Diprenorphin, %” value [2] was 29% @ 1 mM and the Ki [3] was 146 nM.

For `CC(C)(C)OC(=O)N[C@H](CC(=O)OCc1ccccc1)C(=O)N1CCN(C(=O)Cc2ccc(Cl)c(Cl)c2)[C@H](CN2CCCC2)C1` [(R-3d), (R)-4-N-t-Boc-D-aspartic acid-β-benzyl ester-1-[(3,4-dichlorophenyl)acetyl]-2-[(1-pyrrolidinyl)methyl]-piperazine], the “3H-Diprenorphin, % @ 1 uM” value [2] was 36% @ 1 uM and the Ki ([3]; read-out: Ki, nM 3H-U-69,593) was 379 nM and 249 nM.

In the case of `CN(C(=O)Cc1ccc(C(F)(F)F)cc1)[C@H](CN1CCCC1)c1cccc(NS(C)(=O)=O)c1.Cl` [Example 3d, 2-(4-Trifluoromethylphenyl)-N-methyl-N-{[1S]-1-[3-[(methylsulfonyl)amino]phenyl]-2-[1-pyrrolidinyl]ethyl}acetamide hydrochloride], the melting point is reported as 173 to 175 °C, the “Late Phase Formalin A50” value [1] is reported as 16.0 mg/kg and the Ki ([2]; Ki (nM) [3H]-Diprenorphin κ) is reported as 0.28 nM.

With `CN(C(=O)Cc1ccc(S(C)(=O)=O)cc1)[C@H](CN1CCCC1)c1cccc(NS(C)(=O)=O)c1.CS(=O)(=O)O` [Example 3e, 2-(4-Methanesulfonylphenyl)-N-methyl-N-{[1S]-1-[3-[(methylsulfonyl)amino]phenyl]-2-[1-pyrrolidinyl]ethyl}acetamide methanesulfonate] the melting point was 140 to 142 °C, the “Late Phase Formalin, % @ 300” value [1] was 71% @ 300 and the Ki ([2]; Ki (nM) [3H]-Diprenorphin κ) was 3.2 nM.

With `CN(C(=O)Cc1ccc(Cl)c(Cl)c1)[C@H](CN1CCCC1)c1cccc(NS(C)(=O)=O)c1.Cl` [Example 3f, 2-(3,4-Dichlorophenyl)-N-methyl-N-{[1S]-1-[3-[(methylsulfonyl)amino]phenyl]-2-[1-pyrrolidinyl]ethyl}acetamide hydrochloride] the melting point was 240 to 242 °C, the “Late Phase Formalin A50” value [1] was 8.9 mg/kg and the Ki ([2]; Ki (nM) [3H]-Diprenorphin κ) was 0.18 nM.

With `CN(C(=O)Cc1ccc(Cl)c(Cl)c1)[C@H](CN1CCCC1)c1cccc(NC(=O)/C=C\C(=O)O)c1` [Example 3h] the melting point was 174 to 176 °C, the “Late Phase Formalin, % @ 10” value [1] was 59% @ 10 and the Ki ([2]; Ki (nM) [3H]-Diprenorphin κ) was 1.8 nM.

For `CN(C(=O)Cc1ccccc1C(=O)O)[C@H](CN1CCCC1)c1ccccc1.Cl` [Example 3kk, 2-(2-Carboxyphenyl)-N-methyl-N-{[1S]-1-phenyl-2-(1-pyrrolidinyl)ethyl}acetamide hydrochloride], the melting point was 230 to 232 °C (dec.), the “Late Phase Formalin, % @ 300” value [1] was 23% @ 300 and the “[3H]-Diprenorphin κ, % @ 1 μM” value [2] was 53% @ 1 μM.

For `CN(C(=O)Cc1ccc(Cl)c(S(N)(=O)=O)c1)[C@H](CN1CCCC1)c1ccccc1.CS(=O)(=O)O` [Example 3m, 2-(3-Sulfamoyl-4-chlorophenyl)-N-methyl-N-{[1S]-1-phenyl-2-[1-pyrrolidinyl]ethyl}acetamide methanesulfonate], the melting point was 220 to 222 °C, the “Late Phase Formalin, % @ 300” value [1] was 65% @ 300 and the Ki ([2]; Ki (nM) [3H]-Diprenorphin κ) was 5.1 nM.

For `CNS(=O)(=O)c1cc(CC(=O)N(C)[C@H](CN2CCCC2)c2ccccc2)ccc1F.Cl` [Example 3o, 2-[3-(N-Methylsulfamoyl)-4-fluorophenyl]-N-methyl-N-{[1S]-1-phenyl-2-[1-pyrrolidinyl]ethyl}acetamide hydrochloride], the melting point was 278 to 280 °C, the “Late Phase Formalin, % @ 300” value [1] was 59% @ 300 and the Ki ([2]; Ki (nM) [3H]-Diprenorphin κ) was 30.5 nM.

For `CN(C(=O)Cc1ccc(C(F)(F)F)cc1NC(=O)/C=C\C(=O)O)[C@H](CN1CCCC1)c1ccccc1` [Example 3z], the melting point was 153 to 155 °C (dec.), the “Late Phase Formalin, % @ 300” value [1] was 98% @ 300 and the Ki ([2]; Ki (nM) [3H]-Diprenorphin κ) was 1.7 nM.

For “N-[1R,2R-trans-4-Trifluoromethyl-N-methyl-N-[2-(1-pyrrolidinyl)cyclohexyl]-phenylacetamido]glycine Hydrochloride [Example 4k]”, the “Formalin (% A @ 300 μg i-paw)” value [1] was 80% @ 300 and the “[3H]-Diprenorphin, % @ 1 μM” value [2] was 28% @ 1 μM.

With “N-[1S. 2S-trans-4-Trifluoromethyl-N-methyl-N-[2-(1-pyrrolidinyl)cyclohexyl]-phenylacetamido]glycine Hydrochloride [Example 4j]” the “Formalin (% A @ 300 μg i-paw)” value [1] was 91% @ 300 and the Ki ([2]; read-out: Ki(nM) [3H]-Diprenorphin) was 10.3 nM.
